Results: patent publication US5457097A, “Androst-4-eno[4,5-b]pyrrole derivatives” (Farmitalia Carlo Erba S.r.l., priority 1992, dated 1995)

Target: T1, human placental aromatase (Homo sapiens, UniProt P11511)
T1 construct: utilizes the human placental microsomal fraction as enzyme source; from tissue; host or cells: human placenta, microsomal fraction
T1 sequence (P11511 1-503): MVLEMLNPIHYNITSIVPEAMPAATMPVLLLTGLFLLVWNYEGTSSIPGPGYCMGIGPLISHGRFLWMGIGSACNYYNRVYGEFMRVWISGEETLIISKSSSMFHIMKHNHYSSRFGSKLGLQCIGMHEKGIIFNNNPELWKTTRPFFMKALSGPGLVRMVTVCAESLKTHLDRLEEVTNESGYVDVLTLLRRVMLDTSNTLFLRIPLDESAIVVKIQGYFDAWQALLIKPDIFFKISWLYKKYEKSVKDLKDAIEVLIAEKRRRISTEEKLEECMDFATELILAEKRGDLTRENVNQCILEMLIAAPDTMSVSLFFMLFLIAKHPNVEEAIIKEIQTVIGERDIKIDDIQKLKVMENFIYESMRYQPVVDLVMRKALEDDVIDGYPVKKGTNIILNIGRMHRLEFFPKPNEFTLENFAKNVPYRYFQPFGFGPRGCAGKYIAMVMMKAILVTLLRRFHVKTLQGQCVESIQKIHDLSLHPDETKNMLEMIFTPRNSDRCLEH
Experiment: in vitro aromatase inhibition test (Thompson and Siiteri), 3H2O release from [1β-3H]androstenedione
Format: biochemical
Details: human placental microsomal fraction; [1β-3H]androstenedione 50 nM, NADPH, 15 min incubation at 37° C.; read-out: concentration producing 50% inhibition of human placental aromatase (IC50)
Experimental: The concentration of each compound required to reduce control aromatase activity by 50% (IC50) was determined by plotting % inhibition versus log of inhibitor concentration.

C[C@]12C=CC(=O)c3[nH]cc(c31)C[C@@H]1[C@@H]2CC[C@]2(C)C(=O)CC[C@@H]12 [3,17-dioxo-1'H-androsta-1,4-dieno[4,5-b]pyrrole]
IC50: 120 nM
